Series [1] concerns AsPC-1 pancreatic cancer cells. The series can be described thus: Cytotoxicity of test articles (TC50), MTT assay. Format: cell-based, Human. The note with it: Homo sapiens, ASPC1, AsPC-1 cells, concentration at which cell viability was reduced to 50%. The protocol: The human pancreatic carcinoma cell lines, AsPC-1, PANC-1 and CaPan-2 were seeded 3×10^4 cells per well and cultured in a forty-eight (48) well cell culture dish (growth area 0.95 cm^2 per well). Sixteen (16) hours later, cells were treated Compound 1 alone or Compound 1 with a clinical chemotherapy drug, respectively. After 48 or 72 hours of the treatment, methylthiazoletetrazolium (MTT) assay (supplemental protocol-1) was performed to measure the effect of treatment on the viability of cells during proliferation.
B. Cell Preparation • 1. Remove and discard culture medium. • 2. Briefly rinse the cell layer with 5 mL HBSS. Gently shake and remove the HBSS. • 3. Add 5 mL trypsin-EDTA to 15 cm^2 polystyrene dishes. Incubate 5 mins at 37° C. in a humidified incubator with 95% air/5% CO2 atmosphere. • 4. Add 5 mL of complete growth medium (DMEM medium containing 10% FBS) and aspirate cells by gently pipetting. • 5. Count live cells using the trypan blue exclusion assay (supplemental protocol-2) with a hemocytometer. • 6. For in vitro study, cells will be seeded 3×10^4 cells per well and cultured in a forty-eight (48) wells cell culture dish for sixteen (16) hours until treatment. • 7. Incubate cultures at 37° C.
a. Cytotoxicity of test articles (TC50): AsPC-1 was seeded 3×10^4 cells (counted by Cell counter, LUNA™ Automated Cell Counter or hemocytometer) per well and cultured in a 48 wells cell culture dish. Cells were treated with single article from 400 or 800 μM with serial dilution to 0 μM. After 48 or 72 hours of treated, MTT assay was performed to measure the effect of treatment on the viability of AsPC-1 cells during proliferation. The absorbance at 595 nm was measured using a microplate reader (BioTEK, Synergy™ H1). Article sensitivity curves and TC50 values were calculated using GraphPad Prism 4.0 software.
For orientation: Formazan colour is commonly taken as a measure of viable cells.

Series [2] has as its system AsPC-1 subcutaneous xenograft. The series can be described thus: Antitumor activity on AsPC-1 subcutaneous xenograft model. In kind it is in vivo, nude mice. The protocol: The human pancreatic carcinoma cell line, AsPC-1, was cultured and the cells were injected subcutaneously in a flank of 60 mice. Three days later, the tumors could be felt in the mice. When tumors reached approximately 100-200 mg (mm^3), total of fifty one (51) tumor-bearing mice were randomly selected and sorted into one of six (6) groups. Vehicle (corn oil) treated mice were used as negative controls. Compound 1 combined with gemcitabine or paclitaxel were administered orally once a day and/or I.V. twice a week for four (4) weeks. Tumor measurements were recorded once a week using hand-held calipers and Visualsonic Vevo 2100 image system. Individual mouse weights were taken once a week during dosing. Mice were monitored daily for signs of toxicity and morbidity; any abnormal findings were recorded. The study was terminated four (4) weeks after initiation of drug administration.
D. Human Pancreatic Carcinoma Xenograft Models: • 1. To create the subcutaneous xenograft model, athymic female nude mice (4-6 weeks old) were subcutaneously inoculated with 1×10^7 AsPC-1 cells in 0.1 mL of serum-free DMEM medium containing 20% Matrigel (BD Biosciences, Bedford Mass.). • 2. Tumor-bearing animals were divided into the following 6 groups as table 1. • 3. The mice were monitored for activity and physical condition every day, and the determination of body weight and measurement tumor mass should be done once a week. Tumor image will be photed by digital camera and Visualsonic Vevo 2100 image system. Tumor mass is determined by caliper measurement in two perpendicular diameters of the implant and calculate using the formula […], where “a” stands for the long diameter and “b” is the short diameter.
a. Cell Injections: Mice were injected subcutaneously into the right lateral thorax with 1×10^7 viable human pancreatic carcinoma AsPC-1 Cells. […]
C. Tumor Measurements: The injection site of each animal was monitored one (1) time per week for signs of tumor growth. Throughout the study, the length (a) and width (b) of any tumors developed were measured in millimeters (mm) using vernier calipers, where a is the longer of the two (2) dimensions.
D. Evaluation of drug synergistic effect by tumor growth inhibition (TGI) and tumor inhibitory ratio (TIR): Volume of tumor growth inhibition (TGI) for each group was calculated according to the following formula: Tumor growth inhibition (%)=(1−[T−T0]/[C−C0])×100 • T and T0 are the mean tumor volumes on the end day and day 1 of treatment, respectively, for the experimental groups. […] The tumor inhibitory ratio was calculated by the formula: Tumor inhibitory ratio (%)=[(WControl−WTreated)/WControl]×100% • WTreated and WControl are the average tumor weights of the treated and control mice, respectively. […]

Series [3] can be described thus: Body weight and hematological parameters in AsPC-1 xenograft study. Format: in vivo. The protocol:
A. Clinical Observations: Clinical observations of each study animal were performed and at least once daily (including weekends and holidays) for signs of morbidity, mortality and Test Article toxicity. Morbidity includes signs of illness such as, but not limited to, emaciation, dehydration, lethargy, hunched posture, unkempt appearance, dyspnea and urine or fecal staining. All abnormal findings will be recorded.
B. Animal Weights: Individual animal weights were taken one (1) time per week after/before dosing. Weights were recorded first prior to cell injections and continued for the duration of the study.
D. Hematological parameters: Cardiac blood was collected in EDTA for analyzing hematological parameters such as white blood cell count (WBC), red blood cell count (RBC), hemoglobin concentration (HB), hematocrit, mean corpuscular hemoglobin and concentration, platelet distribution width, platelet count, neutrophils, lymphocytes, monocytes, eosinophils. This was determined using hematology counter (Abbott Cell-Dyn 3700, IL).

The test system of series [4] is orthotopic PANC-1 human pancreatic cancer xenograft. Conditions: 30, 60, and 90 mg/kg, cited from earlier work.
For series [5] the following is noted: 50, 100, 200, 300, 450, and 600 mg-dose levels, given daily for 4 weeks; cited from earlier work.
The mark [6] stands for this setting: AsPC-1 xenograft, 28 days treatment.
[7] abbreviates: cardiac blood, AsPC-1 xenograft study, mean ± SEM, n = 3.

The CC50 is the concentration giving 50% cytotoxicity. Regarding `COC1=C(OC)C(O)C(C/C=C(\C)CC/C=C(\C)CCC=C(C)C)C(C)C1=O` (stereo not shown) [Compound 1, 4-hydroxy-2,3-dimethoxy-6-methyl-5-(3,7,11-trimethyldodeca-2,6,10-trienyl)cyclohex-2-enone], the CC50 in series [1] (48 hrs) was 58.1 µM. Moreover, the CC50 in series [1] (72 hrs) is 24 µM. Besides, in series [2] (setting [6]), the “Response, TCR (tumor volume of treatment-to-control ratios)” value is 0.55; the “TGI (volume of tumor growth inhibition)” value was determined as 51%; the “TIR (tumor weight inhibitory ratio)” value came to 45%. The Tumor weight of excised tumors at the time of sacrifice in series [2] (after 28 days of treatments, A 120 mg/kg oral daily, G/P IV twice weekly, mean ± SEM) came out at 0.21 ± 0.07 g. Further, the “number of blood cells” value in series [3] (AsPC-1 xenograft) was “did not affect number of blood cells except for blood glucose”. In series [3] (setting [7]), this compound displayed an HCT of 50.3 ± 1.8%, an HGB of 15.6 ± 1.1 g/dL, an MCH of 15.3 ± 0.3 pg and an MCV of 53.6 ± 2.3 fL. Besides, in series [3] (setting [7]), the RBC is given as 9.93 ± 1.34 10^12/L and the WBC is 7.34 ± 0.71 10^9/L. For the same compound, in series [4] (tumor bearing mice), the “tolerability, body weight loss” value was “tolerated well”. Besides, in series [4] (measured 10 days after drug treatment), the “anti-tumor activity (mean tumor volumes and tumor weights vs vehicle control)” value is “effective anti-tumor activity”. The safety and tolerability entry in series [5] was “generally safe and well tolerated”.

Source of the values: patent US11406605B2, “Therapeutic compositions for treating pancreatic cancer” (Golden Biotechnology Corporation, priority 2017, dated 2022).
